Here are results for 1 compound from publication PMC4225485, “The PHD1 finger of KDM5B recognizes unmodified H3K4 during the demethylation of histone H3K4me2/3 by KDM5B” (Protein & Cell, 2014).

One assay addresses T1, KDM5B-PHD1-L309A (Homo sapiens, UniProt Q9UGL1, L309A).
T1 construct: PHDKDM5B (residues 306–360 aa); GST (N, cleaved yes); made in house
Put plainly: ITC binding, PHD1 L309A mutant. The note with it: Table S1, pH 7.5, 25°C. The procedure: (§1) A similar PHDKDM5B construct was used for the sample required in the NMR experiments. ^13C- and ^15N-labeled PHDKDM5B were prepared in M9 medium. Site-directed mutagenesis was performed using a QuikChange site-directed mutagenesis kit (Stratagene Inc. La Jolla, California, U.S.A). All of the DNA constructs were sequenced, and the molecular weights of the recombinant proteins were verified by mass spectrometry (MALDI).
(§2) To investigate whether the PHD1KDM5B finger and its mutants interact with unmodified or methylated H3K4 or H3K4mutants, the binding affinities of PHD1KDM5B or its mutants to H3 peptides were studied. An ITC-200 microcalorimeter (GE Healthcare) was used with a buffer containing 20 mmol/L Tris, 150 mmol/L NaCl, and 1% Triton X-100, pH 7.5 at 25°C. The reference titration of small molecules in the buffer was subtracted from the experimental data, and the data were fitted using the Origin 7.0 (OriginLab Corporation) software.

The target in the next assay is T2, KDM5B-PHD1-V311A (Homo sapiens, UniProt Q9UGL1, V311A).
T2 construct: PHDKDM5B (residues 306–360 aa); GST (N, cleaved yes); made in house
T2 sequence (Q9UGL1 306-360 V311A): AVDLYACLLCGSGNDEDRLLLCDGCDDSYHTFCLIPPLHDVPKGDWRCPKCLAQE
Put plainly: ITC binding, PHD1 V311A mutant. The settings on record: Table S1, pH 7.5, 25°C. The procedure: as §1, §2

The target in another assay is T3, KDM5B-PHD1-L325A (Homo sapiens, UniProt Q9UGL1, L325A).
T3 construct: PHDKDM5B (residues 306–360 aa); GST (N, cleaved yes); made in house
T3 sequence (Q9UGL1 306-360 L325A): as the sequence (Q9UGL1 306-360 V311A) above, with A6V, L20A counted along it
Nature of the assay: ITC binding, PHD1 L325A mutant. The procedure:
as §1, §2

The next assay deals with T4, KDM5B-PHD1-D332A (Homo sapiens, UniProt Q9UGL1, D332A).
T4 construct: PHDKDM5B (residues 306–360 aa); GST (N, cleaved yes); made in house
T4 sequence (Q9UGL1 306-360 D332A): as the sequence (Q9UGL1 306-360 V311A) above, with A6V, D27A counted along it
Put plainly: ITC binding, PHD1 D332A mutant. The settings on record: Table S1, pH 7.5, 25°C. The procedure:
as §1, §2

Another assay addresses T5, KDM5B-PHD1-D322A (Homo sapiens, UniProt Q9UGL1, D322A).
T5 construct: PHDKDM5B (residues 306–360 aa); GST (N, cleaved yes); made in house
Put plainly: ITC binding, PHD1 D322A mutant. The note with it: Table S1, pH 7.5, 25°C. The procedure: as §1, §2

The next assay has as its target T6, KDM5B-PHD1-D345A (Homo sapiens, UniProt Q9UGL1, D345A).
T6 construct: PHDKDM5B (residues 306–360 aa); GST (N, cleaved yes); made in house
Put plainly: ITC binding, PHD1 D345A mutant. The note with it: Table S1, pH 7.5, 25°C. The procedure: as §1, §2

Another assay deals with T7, KDM5B-PHD1-S333A (Homo sapiens, UniProt Q9UGL1, S333A).
T7 construct: PHDKDM5B (residues 306–360 aa); GST (N, cleaved yes); made in house
T7 sequence (Q9UGL1 306-360 S333A): as the sequence (Q9UGL1 306-360 V311A) above, with A6V, S28A counted along it
Put plainly: ITC binding, PHD1 S333A mutant. The settings on record: Table S1, pH 7.5, 25°C. The procedure:
as §1, §2

A further assay concerns the target T8, KDM5B-PHD1-L324A (Homo sapiens, UniProt Q9UGL1, L324A).
T8 construct: PHDKDM5B (residues 306–360 aa); GST (N, cleaved yes); made in house
Nature of the assay: ITC binding, PHD1 L324A mutant. The note with it: Table S1, pH 7.5, 25°C. The procedure:
as §1, §2

A further assay concerns the target T9, KDM5B-PHD1-W351A (Homo sapiens, UniProt Q9UGL1, W351A).
T9 construct: PHDKDM5B (residues 306–360 aa); GST (N, cleaved yes); made in house
Put plainly: ITC binding, PHD1 W351A mutant. The procedure: as §1, §2

A further assay concerns the target T10, KDM5B-PHD1-Y334A (Homo sapiens, UniProt Q9UGL1, Y334A).
T10 construct: PHDKDM5B (residues 306–360 aa); GST (N, cleaved yes); made in house
Nature of the assay: ITC binding, PHD1 Y334A mutant. The note with it: Table S1, pH 7.5, 25°C. The procedure: as §1, §2

The structures appear in SMILES notation.

T5 sequence (Q9UGL1 306-360 D322A): as the sequence (Q9UGL1 306-360 V311A) above, with A6V, D17A counted along it
T9 sequence (Q9UGL1 306-360 W351A): as the sequence (Q9UGL1 306-360 V311A) above, with A6V, W46A counted along it
T8 sequence (Q9UGL1 306-360 L324A): as the sequence (Q9UGL1 306-360 V311A) above, with A6V, L19A counted along it
T1 sequence (Q9UGL1 306-360 L309A): as the sequence (Q9UGL1 306-360 V311A) above, with L4A, A6V counted along it
T6 sequence (Q9UGL1 306-360 D345A): as the sequence (Q9UGL1 306-360 V311A) above, with A6V, D40A counted along it
T10 sequence (Q9UGL1 306-360 Y334A): as the sequence (Q9UGL1 306-360 V311A) above, with A6V, Y29A counted along it

What is called Kd is the concentration at which binding is half-saturated. In the case of `C[C@H](N)C(=O)N[C@@H](CCCNC(=N)N)C(=O)N[C@H](C(=O)N[C@@H](CCCCN)C(=O)N[C@@H](CCC(N)=O)C(=O)N[C@H](C(=O)N[C@@H](C)C(=O)N[C@@H](CCCNC(=N)N)C(=O)N[C@@H](CCCCN)C(=O)N[C@@H](CO)C(=O)O)[C@@H](C)O)[C@@H](C)O` [H3K4me0], the Kd on KDM5B-PHD1-L309A is 8.3 ± 0.5 µM; at KDM5B-PHD1-V311A, 8.2 ± 0.3 µM; on KDM5B-PHD1-D332A it was 11.3 ± 0.5 µM; at KDM5B-PHD1-D322A, 10.7 ± 0.5 µM; at KDM5B-PHD1-D345A, 6.7 ± 0.3 µM; on KDM5B-PHD1-S333A, 12.9 ± 0.5 µM. In addition, the dissociation constant (Kd) on KDM5B-PHD1-L324A was 15.3 ± 0.7 µM; at KDM5B-PHD1-Y334A, 12.6 ± 0.4 µM. Moreover, the binding affinity entry at KDM5B-PHD1-L325A and at KDM5B-PHD1-W351A was “non-detectable” throughout.
